Assays:
[1] = target: T1, E. coli ribose binding protein (RBP), fluorophore-conjugated cysteine mutants (Escherichia coli, UniProt P02925); experiment: Ligand affinity of ribose BP fluorescent conjugates (Kd range); details: range over conjugates, n=14
T1 construct: single-Cys mutants (e.g. T135C, E192C) with fluorophores
Source text: (§1) Molecular Cloning. […] Amplified products were cloned into one of the protein expression vectors pAED4 (Doering, “Functional and structural studies of a small f-actin binding domain” in Ph.D. thesis, Massachusetts Institute of Technology, 1992); pKK223-3 (Brosius & Holy, Proc. Natl. Acad. Sci. USA 81:6929-6933, 1984); or pET vectors (Studier et al., Meth. Enzymol. 185:60-89, 1990) (Novagen). N-terminal oligonucleotide primers were designed to clone only the processed periplasmic form, deleting the signal sequence. The C-terminal primer was designed to append the sequence Gly-Ser-Gly-(His)n or Gly-Ser-(His)n, where n=5, 6, or 10. Two tandem stop codons (TAATGA) follow the last His codon. […] Additionally the sequence of Fe(III) BP was mutated by substitution of Glu57 with Asp to raise the Kd to a concentration range conveniently measured using Fe(III) citrate.
(§2) Fluorophore conjugation to cysteine-substituted bPBPs. […] The efficiency of reporter group attachment was assessed by determination of unreacted thiol with Ellman's reagent (Ellman, Arch. Biochem. Biophys. 74:443-450, 1958) or by measuring the ratio of fluorophore to protein from absorbance spectra of the purified conjugate.
(§3) Fluorimetry. […] Fluorescence emission spectra were acquired with excitation and emission slit widths of 4 and 8 nm, respectively. […]

[2] = target: T2, E. coli ribose binding protein variant A234C, fluorophore conjugate (Escherichia coli, UniProt P02925, A259C); experiment: Fluorimetric titration of fluorophore conjugates; details: ligand ribose
T2 construct: Gly-Ser-Gly-(His)n or Gly-Ser-(His)n, n=5, 6 or 10 (C); initiator methionine (N); made in house; host or cells: E. coli strain BL21-DE3
Source text: (§4) Molecular Cloning. […] Amplified products were cloned into one of the protein expression vectors pAED4 (Doering, “Functional and structural studies of a small f-actin binding domain” in Ph.D. thesis, Massachusetts Institute of Technology, 1992); pKK223-3 (Brosius & Holy, Proc. Natl. Acad. Sci. USA 81:6929-6933, 1984); or pET vectors (Studier et al., Meth. Enzymol. 185:60-89, 1990) (Novagen). N-terminal oligonucleotide primers were designed to clone only the processed periplasmic form, deleting the signal sequence. The C-terminal primer was designed to append the sequence Gly-Ser-Gly-(His)n or Gly-Ser-(His)n, where n=5, 6, or 10. Two tandem stop codons (TAATGA) follow the last His codon. […] Single amino acid substitutions were generated by overlapping PCR mutagenesis (Ho et al., Gene 77:51-59, 1989). All clones and mutations were confirmed by nucleotide sequencing. In the case of arabinose BP, the single cysteine in the wild type sequence was replaced by alanine to eliminate the possibility of reporter group conjugation to this thiol (Miller et al., J. Biol. Chem. 254:7521-7528, 1979). Additionally the sequence of Fe(III) BP was mutated by substitution of Glu57 with Asp to raise the Kd to a concentration range conveniently measured using Fe(III) citrate.
(§5) Fluorophore conjugation to cysteine-substituted bPBPs. Thiol-reactive fluorophores obtained from Molecular Probes (Eugene, Oreg.) were 5-iodoacetamidofluorescein (fluorescein); N-(1-pyrene) iodoacetamide (pyrene); N,N′-dimethyl-N-(iodoacetyl)-N′-(7-nitrobenz-2-oxa-1,3-diazol-4-yl)ethylenediamide (NBD); N-((2-(iodoacetoxy)ethyl)-N-methyl)amino-7-nitrobenz-2-oxa-1,3-diazole (NBDE); and 6-acryloyl-2-dimethylaminonaphthalene (acrylodan). The styryl and naphthyl dyes JPW4039, JPW4042, and JPW4045 (FIG. 3) were synthesized at the University of Connecticut. All fluorophore conjugation steps were typically carried out at room temperature. To protein at a concentration of 100 μM was added tris-(2-carboxyethyl)phosphine HCl to a five-fold molar excess to reduce intermolecular disulfide bonds. A thiol-reactive fluorophore (20 to 25 mM in acetonitrile or dimethyl sulfoxide) was added in small aliquots to a five-fold molar excess over protein. Conjugation proceeded in the dark at room temperature for 4 hours, or overnight at 4° C. Separation of protein from unreacted fluorophore was achieved by exhaustive dialysis or by size-exclusion chromatography. The efficiency of reporter group attachment was assessed by determination of unreacted thiol with Ellman's reagent (Ellman, Arch. Biochem. Biophys. 74:443-450, 1958) or by measuring the ratio of fluorophore to protein from absorbance spectra of the purified conjugate.
(§6) Fluorimetry. All measurements were conducted with an SLM Aminco-Bowman series 2 fluorimeter, with sample stirring at 25° C. Fluorescence emission spectra were acquired with excitation and emission slit widths of 4 and 8 nm, respectively. Photomultiplier tube potential was maintained between 400 and 800 volts. Protein concentrations were in the range of 50 to 1000 nM. Fluorophore-specific excitation was at the following approximate wavelengths: tryptophan, 290 nm; acrylodan, 390 nm; fluorescein, 485 nm; pyrene, 340 nm; NBD and NBDE, 490 nm; JPW4039, 485 nm; JPW4042, 470 nm; JPW4045, 470 nm.
(§7) Corrections were made for dilution of the protein and for background signal from buffer. Binding curves were fit to binding isotherms using equation 3 or 4, as appropriate.
(§8) Analyte affinity measurements. […] The emission wavelength monitored was that of maximum difference in intensity between the ligand-free and bound states. For each conjugate, fluorescence intensiometric observations were fit to a hyperbolic binding isotherm for a two-state model (Marvin et al., Proc. Natl. Acad. Sci. USA 94:4366-4371, 1997): […]

[3] = target: T3, E. coli ribose binding protein variant E192C, fluorophore conjugate (Escherichia coli, UniProt P02925, E217C); experiment: Fluorimetric titration of fluorophore conjugates
T3 construct: Gly-Ser-Gly-(His)n or Gly-Ser-(His)n, n=5, 6 or 10 (C); initiator methionine (N); made in house; host or cells: E. coli strain BL21-DE3
Source text: as §4, §5, §6, §7, §8

[4] = target: T4, E. coli ribose binding protein variant L236C, fluorophore conjugate (Escherichia coli, UniProt P02925, L261C); experiment: Fluorimetric titration of fluorophore conjugates; details: ligand ribose
T4 construct: Gly-Ser-Gly-(His)n or Gly-Ser-(His)n, n=5, 6 or 10 (C); initiator methionine (N); made in house; host or cells: E. coli strain BL21-DE3
Source text: as §4, §5, §6, §7, §8

[5] = target: T5, E. coli ribose binding protein variant L265C, fluorophore conjugate (Escherichia coli, UniProt P02925, L290C); experiment: Fluorimetric titration of fluorophore conjugates
T5 construct: Gly-Ser-Gly-(His)n or Gly-Ser-(His)n, n=5, 6 or 10 (C); initiator methionine (N); made in house; host or cells: E. coli strain BL21-DE3
Source text: as §4, §5, §6, §7, §8

[6] = target: T6, E. coli sulfate binding protein (SBP), fluorophore-conjugated cysteine mutants (Escherichia coli, UniProt P0AG78); experiment: Ligand affinity of sulfate BP fluorescent conjugates (Kd range); details: range over conjugates, n=8
T6 construct: several single-Cys mutants with fluorophores
Source text: as §1
as §2, with “conjugate. […]” for “conjugate.”
as §3

[7] = target: T7, E. coli sulfate binding protein variant L65C, fluorophore conjugate (Escherichia coli, UniProt P0AG78, L84C); experiment: Fluorimetric titration of fluorophore conjugates; details: Fluorescein conjugate, ligand sulfate
T7 construct: Gly-Ser-Gly-(His)n or Gly-Ser-(His)n, n=5, 6 or 10 (C); initiator methionine (N); made in house; host or cells: E. coli strain BL21-DE3
Source text: as §4, §5
(§9) Sulfate BP buffer (20 mM Tris-HCl, pH 8.0) was passed through the chloride form of Dowex 1X2-100 strongly basic anion-exchange resin. Sulfate BP solutions were treated by dialysis against treated buffer; Dowex resin held in a separate dialysis tube was also included.
as §6, §7
(§10) Analyte affinity measurements. […] The emission wavelength monitored was that of maximum difference in intensity between the ligand-free and bound states.

[8] = target: T8, E. coli sulfate binding protein variant Q294C, fluorophore conjugate (Escherichia coli, UniProt P0AG78, Q313C); experiment: Fluorimetric titration of fluorophore conjugates; details: JPW4042 conjugate, ligand sulfate
T8 construct: Gly-Ser-Gly-(His)n or Gly-Ser-(His)n, n=5, 6 or 10 (C); initiator methionine (N); made in house; host or cells: E. coli strain BL21-DE3
Source text: as §4, §5, §9, §6, §7, §10

[9] = target: T9, E. coli sulfate binding protein variant R134C, fluorophore conjugate (Escherichia coli, UniProt P0AG78, R153C); experiment: Fluorimetric titration of fluorophore conjugates
T9 construct: Gly-Ser-Gly-(His)n or Gly-Ser-(His)n, n=5, 6 or 10 (C); initiator methionine (N); made in house; host or cells: E. coli strain BL21-DE3
Source text: as §4, §5, §9, §6, §7, §10

[10] = target: T10, E. coli sulfate binding protein variant W290C, fluorophore conjugate (Escherichia coli, UniProt P0AG78, W309C); experiment: Fluorimetric titration of fluorophore conjugates; details: JPW4042 conjugate, ligand sulfate
T10 construct: Gly-Ser-Gly-(His)n or Gly-Ser-(His)n, n=5, 6 or 10 (C); initiator methionine (N); made in house; host or cells: E. coli strain BL21-DE3
Source text: as §4, §5, §9, §6, §7, §10

T4 sequence (P02925 26-296 L261C): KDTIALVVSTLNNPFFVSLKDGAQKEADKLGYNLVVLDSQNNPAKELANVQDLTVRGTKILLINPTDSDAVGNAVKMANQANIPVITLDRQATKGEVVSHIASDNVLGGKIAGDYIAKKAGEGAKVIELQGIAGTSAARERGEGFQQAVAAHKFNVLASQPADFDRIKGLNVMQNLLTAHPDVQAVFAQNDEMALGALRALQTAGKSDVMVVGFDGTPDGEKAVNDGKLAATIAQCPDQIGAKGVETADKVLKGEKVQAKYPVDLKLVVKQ
T9 sequence (P0AG78 20-329 R153C): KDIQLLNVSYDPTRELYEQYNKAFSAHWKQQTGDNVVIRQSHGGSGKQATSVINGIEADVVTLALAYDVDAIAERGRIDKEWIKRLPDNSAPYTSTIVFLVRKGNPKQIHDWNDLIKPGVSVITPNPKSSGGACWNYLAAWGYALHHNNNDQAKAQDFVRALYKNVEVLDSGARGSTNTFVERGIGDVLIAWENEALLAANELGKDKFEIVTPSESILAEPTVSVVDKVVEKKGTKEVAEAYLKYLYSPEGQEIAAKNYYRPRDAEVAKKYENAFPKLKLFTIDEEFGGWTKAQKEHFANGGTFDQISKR
T3 sequence (P02925 26-296 E217C): as the sequence (P02925 26-296 L261C) above, with E192C, C236L counted along it
T2 sequence (P02925 26-296 A259C): as the sequence (P02925 26-296 L261C) above, with A234C, C236L counted along it
T6 sequence (P0AG78 20-329, change not shown): as the sequence (P0AG78 20-329 R153C) above, with C134R counted along it
T8 sequence (P0AG78 20-329 Q313C): as the sequence (P0AG78 20-329 R153C) above, with C134R, Q294C counted along it
T7 sequence (P0AG78 20-329 L84C): as the sequence (P0AG78 20-329 R153C) above, with L65C, C134R counted along it
T1 sequence (P02925 26-296, stated change not applied): as the sequence (P02925 26-296 L261C) above, with C236L counted along it
T5 sequence (P02925 26-296 L290C): as the sequence (P02925 26-296 L261C) above, with C236L, L265C counted along it
T10 sequence (P0AG78 20-329 W309C): as the sequence (P0AG78 20-329 R153C) above, with C134R, W290C counted along it

OC1OC[C@@H](O)[C@@H](O)[C@H]1O (some centres unmarked) [ribose]
range of Kd [1]: 0.1 to 2090 µM | Kd ([2]; JPW4039 conjugate): 1.84 µM | Kd ([2]; JPW4045 conjugate): 3.76 µM | Kd ([2]; NBD conjugate): 0.735 µM | Kd ([3]; Kd, Fluorescein conjugate, E192C, ligand ribose): 11.4 µM | Kd ([3]; Kd, JPW4039 conjugate, E192C, ligand ribose): 2.57 µM | Kd ([3]; Kd, JPW4042 conjugate, E192C, ligand ribose): 5.03 µM | Kd ([3]; Kd, JPW4045 conjugate, E192C, ligand ribose): 15 µM | Kd ([3]; Kd, NBD conjugate, E192C, ligand ribose): 2.6 µM | Kd ([3]; affinity for ribose (Kd), E192C-JPW4039 conjugate): 2.6 µM | Kd ([3]; affinity for ribose (Kd), E192C-JPW4045 conjugate): 15 µM | Kd ([3]; affinity for ribose (Kd), E192C-NBD conjugate): 2.6 µM | Kd ([4]; JPW4042 conjugate): 0.62 µM | Kd ([4]; JPW4045 conjugate): 1.53 µM | Kd ([4]; NBD conjugate): 0.1 µM | Kd [5]: 0.26 µM

O=S(=O)(O)O [sulfate]
Kd [6]: 0.32 to 29 µM | Kd [7]: 1.09 µM | Kd [8]: 0.83 µM | Kd ([9]; Acrylodan conjugate, R134C, ligand sulfate): 4.17 µM | Kd ([9]; Fluorescein conjugate, R134C, ligand sulfate): 0.323 µM | Kd ([9]; JPW4039 conjugate, R134C, ligand sulfate): 7.5 µM | Kd ([9]; JPW4042 conjugate, R134C, ligand sulfate): 29.1 µM | Kd ([9]; NBD conjugate, R134C, ligand sulfate): 22.4 µM | Kd ([9]; R134C-acrylodan): ~4 µM | Kd [10]: 0.336 µM
